Twelve compounds from patent publication US20240368173A1, “TRICYCLIC GPR65 MODULATORS” (PATHIOS THERAPEUTICS LIMITED, priority 2021, published 2024) can be followed below.

This assay deals with human recombinant GPR65 (Homo sapiens, UniProt Q8IYL9). In words: Human GPR65 cAMP HTRF antagonist assay. The format is cell-based. The text has this:
In one preferred embodiment, the compound prevents the increase in cytoplasmic cAMP levels expected following GPR65 activation at acidic pH. This prevention of cAMP accumulation in turn prevents downstream signalling through ICER, as described above. The “Human GPR65 cyclic adenosine monophosphate (cAMP) Homogeneous Time Resolved Fluorescence (HTRF) antagonist assay”, or simply “cAMP assay”, as described in the accompanying examples, can be used to measure the potency of GPR65 modulators, which is expressed as the concentration of compound required to reduce the increase in cAMP concentration upon GPR65 activation by 50% (i.e. an IC50).
Human GPR65 Cyclic Adenosine Monophosphate (cAMP) Homogeneous Time Resolved Fluorescence (HTRF) Antagonist Assay Procedure
IC50 data was obtained by the following procedure:
1321N1 human astrocytoma cells stably expressing human recombinant GPR65 (1321N1-hrGPR65 cells, EuroscreenFast) were cultured according to the vendor's instructions.
Compounds were tested for their ability to antagonise GPR65, through measuring the concentration of cytoplasmic cAMP following treatment of the cells at a pH of 7.2 to activate GPR65 signalling and addition of the compound to be tested. The extent to which the expected rise in cAMP concentration upon GPR65 activation was suppressed by the added compound is indicative of its potency. The assay was carried out according to EuroscreenFast assay Methodology as follows.
On the day of the assay, test compounds were added to 384-well, low volume, white microtiter plates by acoustic dispensing. KRH buffer (5 mM KCl, 1.25 mM MgSO4, 124 mM NaCl, 25 mM HEPES, 13.3 mM Glucose, 1.25 mM KH2PO4 and 1.45 mM CaCl2) was adjusted to pH 6.5, pH 7.6 and pH 8.4 by adding NaOH. 1321N1-hGPR65 cells were rapidly thawed and diluted in KRH, pH 7.6 prior to centrifugation at 300×g for 5 min and resuspension in assay buffer (KRH, pH 7.6, supplemented with 1 mM 3-isobutyl-1-methylxanthine (IBMX) and 200 μM ethylenediaminetetraacetic acid (EDTA)). Cells were added to assay plates at a density of 2,000 cells per well in a volume of 5 μl. Assay plates were briefly centrifuged at 100×g and then incubated at room temperature for 30 min. Cells were stimulated by the addition of 5 μL KRH, pH 6.5, to achieve an assay pH of 7.2, while control wells received 5 μl KRH, pH 8.4 to achieve an assay pH of 7.9. Assay plates were briefly centrifuged at 100×g and then incubated at room temperature for 30 min.
Accumulation of cAMP was detected by cAMP HTRF kit (Cisbio). d2-labeled cAMP and cryptate-labeled anti-cAMP antibody in Lysis and Detection Buffer (Cisbio) were added to assay plates, and the plates were incubated at room temperature for 1 h. HTRF measurements were performed using a Pherastar FSX instrument. Acceptor and donor emission signals were measured at 665 nm and 620 nm, respectively, and HTRF ratios were calculated as signal665 nm/signal620 nm×10^4. Data were normalised to high and low control values and fitted with 4-parameter logistic regression to determine hGPR65 IC50 values for the test compounds, which are shown in Table 1.
Background: Time-resolved FRET reads energy transfer from a long-lived donor to a nearby acceptor.

Sequence of human recombinant GPR65 (Q8IYL9 whole entry): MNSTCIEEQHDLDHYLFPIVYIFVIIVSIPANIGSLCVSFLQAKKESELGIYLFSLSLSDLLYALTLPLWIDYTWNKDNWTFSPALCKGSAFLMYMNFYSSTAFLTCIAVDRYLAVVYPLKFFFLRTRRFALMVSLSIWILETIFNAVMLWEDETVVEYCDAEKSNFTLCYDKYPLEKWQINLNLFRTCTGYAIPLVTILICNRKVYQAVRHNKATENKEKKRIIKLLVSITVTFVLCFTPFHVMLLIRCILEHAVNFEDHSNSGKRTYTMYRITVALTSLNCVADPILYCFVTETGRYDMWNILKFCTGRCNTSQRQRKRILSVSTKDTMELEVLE

`O=C(Nc1cc(Cl)c(C(F)(F)F)cc1F)N1C2CCC1C(F)c1c2ccnc1F` (mixture of isomers) [Compound 226, (±, 9-endo)-N-(5-chloro-2-fluoro-4-(trifluoromethyl)phenyl)-1,9-difluoro-6,7,8,9-tetrahydro-5H-5,8-epiminocyclohepta[c]pyridine-10-carboxamide]: the IC50 (commonly the midpoint of a concentration-inhibition curve) was below 500 nM. As to `O=C(Nc1cc(Cl)c(C(F)(F)F)cc1F)N1C2CCC1c1n[nH]c(=O)cc1C2` (racemic) [Compound 1, (±)—N-(5-chloro-2-fluoro-4-(trifluoromethyl)phenyl)-3-oxo-3,5,6,7,8,9-hexahydro-2H-6,9-epiminocyclohepta[c]pyridazine-10-carboxamide], the IC50 is below 500 nM. For `O=C(Nc1cc(Cl)c(Cl)cc1F)N1C2CCC1c1n[nH]c(=O)cc1C2` (racemic) [Compound 2, (±)-N-(4,5-Dichloro-2-fluorophenyl)-3-oxo-3,5,6,7,8,9-hexahydro-2H-6,9-epiminocyclohepta[c]pyridazine-10-carboxamide] the value was below 500 nM; for `O=C(Nc1ccc(C(F)(F)F)c(Br)c1)N1C2CCC1c1n[nH]c(=O)cc1C2` (racemic) [Compound 3, (±)-N-(3-Bromo-4-(trifluoromethyl)phenyl)-3-oxo-3,5,6,7,8,9-hexahydro-2H-6,9-epiminocyclohepta[c]pyridazine-10-carboxamide], below 500 nM. As for `O=C(Nc1ccc(Br)c(Cl)c1)N1C2CCC1c1n[nH]c(=O)cc1C2` (racemic) [Compound 4, (±)-N-(4-Bromo-3-chlorophenyl)-3-oxo-3,5,6,7,8,9-hexahydro-2H-6,9-epiminocyclohepta[c]pyridazine-10-carboxamide], the figure is below 500 nM. For `O=C(Nc1ccc(Cl)c(Br)c1)N1C2CCC1c1n[nH]c(=O)cc1C2` (racemic) [Compound 5, (±)-N-(3-Bromo-4-chlorophenyl)-3-oxo-3,5,6,7,8,9-hexahydro-2H-6,9-epiminocyclohepta[c]pyridazine-10-carboxamide] the value was below 500 nM. For `O=C(Nc1cc(Br)c(C(F)(F)F)cc1F)N1C2CCC1c1n[nH]c(=O)cc1C2` (racemic) [Compound 6, (±)-N-(5-Bromo-2-fluoro-4-(trifluoromethyl)phenyl)-3-oxo-3,5,6,7,8,9-hexahydro-2H-6,9-epiminocyclohepta[c]pyridazine-10-carboxamide], the IC50 was below 500 nM.

Regarding `O=C(Nc1cc(Br)c(Cl)cc1F)N1C2CCC1c1n[nH]c(=O)cc1C2` (racemic) [Compound 7, (±)-N-(5-Bromo-4-chloro-2-fluorophenyl)-3-oxo-3,5,6,7,8,9-hexahydro-2H-6,9-epiminocyclohepta[c]pyridazine-10-carboxamide], the IC50 is below 500 nM. As for `O=C(Nc1cc(Cl)c(Br)cc1F)N1C2CCC1c1n[nH]c(=O)cc1C2` (racemic) [Compound 8, (±)-N-(4-Bromo-5-chloro-2-fluorophenyl)-3-oxo-3,5,6,7,8,9-hexahydro-2H-6,9-epiminocyclohepta[c]pyridazine-10-carboxamide], the half-inhibitory concentration (IC50) was below 500 nM.

As to `O=C(Nc1ccc(OC(F)(F)F)c(Cl)c1)N1C2CCC1c1n[nH]c(=O)cc1C2` (racemic) [Compound 9, (±)-N-(3-Chloro-4-(trifluoromethoxy)phenyl)-3-oxo-3,5,6,7,8,9-hexahydro-2H-6,9-epiminocyclohepta[c]pyridazine-10-carboxamide], the half-maximal inhibitory concentration (IC50) was below 500 nM. Consider `O=C(Nc1ccc(Br)c(C(F)(F)F)c1)N1C2CCC1c1n[nH]c(=O)cc1C2` (racemic) [Compound 10, (±)-N-(4-Bromo-3-(trifluoromethyl)phenyl)-3-oxo-3,5,6,7,8,9-hexahydro-2H-6,9-epiminocyclohepta[c]pyridazine-10-carboxamide], for which the IC50 was below 500 nM. For the compound `N#Cc1cc(NC(=O)N2C3CCC2c2n[nH]c(=O)cc2C3)ccc1C(F)(F)F` (racemic) [Compound 11, (±)-N-(3-Cyano-4-(trifluoromethyl)phenyl)-3-oxo-3,5,6,7,8,9-hexahydro-2H-6,9-epiminocyclohepta[c]pyridazine-10-carboxamide], the IC50 was below 500 nM.
